Measured values published in patent US20210353557A1, “ORAL COMPOSITION CONTAINING REDUCED COENZYME Q10, METHOD FOR PRODUCING SAME, METHOD FOR PREVENTING DISCOLORATION AND DISCOLORATION PREVENTING AGENT” (SUNTORY HOLDINGS LIMITED, priority 2018, published 2021).

Assay: Color difference (ΔE) after storage under accelerated condition, Reference Example 1
Format: physicochemical
Conditions: 40° C., 75% RH; for ΔE After 7 days: 7-day (168-hour) storage; for ΔE After 7 days / ΔE 0-Hour storage: n=1; for change in ΔE value after storage (in words): 7 days; for ΔE 0-Hour storage: start of storage
Description: The L value, a value, and b value of a sample were measured using a color difference meter (trade name: Spectrophotometer SE7700, available from Nippon Denshoku Industries Co., Ltd.). • The number n of samples was 3 for each standard unless otherwise mentioned. The average values of the three samples were defined as the L value, a value, and b value of the standard. • Measurement was performed five times for each sample, and the average value was output as the result. The sample was stirred for each measurement operation so that the whole sample was subjected to the measurement. • In the measurement, about 1 g of a sample was weighed out from a Petri dish for use. The sample in the Petri dish was mixed and homogenized before weighing out.
The ΔE value was calculated by the following formula.
ΔE={(ΔL)^2+(Δa)^2+(Δb)^2}^1/2
For each standard after storage for a predetermined period of time, the ΔE value was calculated based on the 0-time value (value after 0-hour storage) of the standard. For a control after storage for a predetermined period of time, the ΔE value was also calculated based on the 0-time value (value after 0-hour storage) of the control.
About 2 g each of the reduced CoQ10, sesamin compound, theanine, and dextrin were put into separate Petri dishes (n=1) and left to stand at a temperature of 40° C. and a humidity of 75% RH (accelerated condition). The L value, a value, and b value were measured at the start of storage (0-hour storage) and after 7-day (168-hour) storage, and then the ΔE value was calculated. For each sample, the change in appearance after seven days from the start of storage was visually observed.

| SMILES | ΔE After 7 days | change in ΔE value after storage (in words) | appearance by visual observation after seven days | ΔE 0-Hour storage |
| --- | --- | --- | --- | --- |
| CCNC(=O)CC[C@H](N)C(=O)O [Standard S-3, Theanine] | 0.1 | little change in ΔE value after storage | white to pale yellow | 0.0 |
| COc1c(O)c(C)c(C/C=C(\C)CC/C=C(\C)CC/C=C(\C)CC/C=C(\C)CC/C=C(\C)CC/C=C(\C)CC/C=C(\C)CC/C=C(\C)CC/C=C(\C)CCC=C(C)C)c(O)c1OC [Standard S-1, Reduced CoQ10] | 66.4 | increase in ΔE value over time | orange | 0.0 |
